SMILES strings stand for the structures. Positions count from the first letter of the chain named.

The text below walks through data of PMC2151644 (The Journal of General Physiology, 2007).

Test [1] addresses T1, epithelial sodium channel (ENaC), β subunit (FLAG-tagged/G525C β-ENaC) (Rattus norvegicus, UniProt P37089+P37090+P37091, P37090:G525C).
T1 sequence (P37090 1-638 G525C): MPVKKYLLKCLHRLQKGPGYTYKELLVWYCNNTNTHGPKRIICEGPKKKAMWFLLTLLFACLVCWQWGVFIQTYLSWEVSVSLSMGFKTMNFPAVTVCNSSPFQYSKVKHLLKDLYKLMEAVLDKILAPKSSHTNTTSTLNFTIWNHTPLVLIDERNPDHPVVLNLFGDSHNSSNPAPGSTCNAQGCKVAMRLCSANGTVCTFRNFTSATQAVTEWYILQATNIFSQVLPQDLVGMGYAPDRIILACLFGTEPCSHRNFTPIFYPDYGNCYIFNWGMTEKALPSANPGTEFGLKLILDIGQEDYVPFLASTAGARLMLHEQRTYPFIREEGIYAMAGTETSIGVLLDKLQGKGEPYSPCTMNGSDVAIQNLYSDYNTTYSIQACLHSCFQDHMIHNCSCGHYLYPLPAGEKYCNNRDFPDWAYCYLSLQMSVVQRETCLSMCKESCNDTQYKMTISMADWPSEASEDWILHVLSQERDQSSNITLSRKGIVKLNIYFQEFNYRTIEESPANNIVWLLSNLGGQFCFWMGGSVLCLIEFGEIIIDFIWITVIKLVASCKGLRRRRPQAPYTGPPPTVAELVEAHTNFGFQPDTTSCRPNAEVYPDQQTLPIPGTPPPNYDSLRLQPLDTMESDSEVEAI
T1 sequence (P37089 1-698): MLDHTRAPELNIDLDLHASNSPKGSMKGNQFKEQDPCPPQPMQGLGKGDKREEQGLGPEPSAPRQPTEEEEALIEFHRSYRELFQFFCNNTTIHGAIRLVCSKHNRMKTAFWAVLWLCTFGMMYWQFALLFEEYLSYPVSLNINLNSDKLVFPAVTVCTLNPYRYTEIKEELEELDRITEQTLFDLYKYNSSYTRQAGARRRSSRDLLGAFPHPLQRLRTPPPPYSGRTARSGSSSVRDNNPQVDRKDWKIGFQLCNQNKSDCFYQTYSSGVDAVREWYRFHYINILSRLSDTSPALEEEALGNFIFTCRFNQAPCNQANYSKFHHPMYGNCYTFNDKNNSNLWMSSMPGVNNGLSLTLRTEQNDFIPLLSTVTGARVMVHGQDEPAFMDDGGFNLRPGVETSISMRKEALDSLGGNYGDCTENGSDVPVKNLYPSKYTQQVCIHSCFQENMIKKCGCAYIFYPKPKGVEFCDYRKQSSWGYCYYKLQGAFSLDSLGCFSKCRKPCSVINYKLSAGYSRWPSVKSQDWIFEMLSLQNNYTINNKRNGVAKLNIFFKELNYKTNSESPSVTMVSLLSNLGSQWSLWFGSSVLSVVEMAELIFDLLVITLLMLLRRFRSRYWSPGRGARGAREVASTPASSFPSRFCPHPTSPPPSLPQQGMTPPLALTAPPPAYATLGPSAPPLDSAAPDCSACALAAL
T1 sequence (P37091 1-650): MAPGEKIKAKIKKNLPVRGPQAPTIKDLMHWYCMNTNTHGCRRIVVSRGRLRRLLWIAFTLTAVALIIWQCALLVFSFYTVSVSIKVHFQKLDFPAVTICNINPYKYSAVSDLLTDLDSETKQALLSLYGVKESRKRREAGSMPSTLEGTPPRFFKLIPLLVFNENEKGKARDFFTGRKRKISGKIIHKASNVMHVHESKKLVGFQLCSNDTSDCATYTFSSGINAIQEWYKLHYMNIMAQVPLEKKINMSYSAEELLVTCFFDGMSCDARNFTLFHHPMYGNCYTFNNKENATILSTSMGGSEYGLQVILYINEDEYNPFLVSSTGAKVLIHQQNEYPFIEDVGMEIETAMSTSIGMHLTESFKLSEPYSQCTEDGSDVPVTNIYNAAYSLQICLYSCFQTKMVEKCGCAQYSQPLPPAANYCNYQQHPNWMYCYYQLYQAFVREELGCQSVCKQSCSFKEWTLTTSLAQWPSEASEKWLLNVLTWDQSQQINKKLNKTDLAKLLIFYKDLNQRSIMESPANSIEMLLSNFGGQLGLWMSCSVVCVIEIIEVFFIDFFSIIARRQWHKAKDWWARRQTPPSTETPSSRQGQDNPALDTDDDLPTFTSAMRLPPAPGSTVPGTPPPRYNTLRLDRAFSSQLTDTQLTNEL
The experiment in a line: dose-response block of short-circuit current in MDCK monolayers. The test is classed as cell-based.

Test [2] has as its target T2, epithelial sodium channel (ENaC), β subunit (FLAG-tagged β-ENaC) (Rattus norvegicus, UniProt P37089+P37090+P37091).
T2 sequence (P37090 1-638): T1 sequence (P37090 1-638 G525C) with C525G
T2 sequence (P37089 1-698): T1 sequence (P37089 1-698)
T2 sequence (P37091 1-650): T1 sequence (P37091 1-650)
The test is described as above. The test is classed as cell-based.

With `N=C(N)NC(=O)c1nc(Cl)c(N)nc1N` [amiloride], the values for the inhibition constant Ki in test [1] and in test [2] were 36000 nM and 84 nM, respectively.

With `NC(=NCc1ccccc1)NC(=O)c1nc(Cl)c(N)nc1N` [benzamil], the inhibition constant Ki is 2900 nM in test [1] and 18 nM in test [2].

In general, Ki refers to a dissociation constant, usually derived from enzyme kinetics or from competition with a known ligand. The low end stands for tighter binding, the high end for weaker binding.
